Assay results taken from PubChem BioAssay (NCI).
Several values for one entry are separate records, joined by “and”; a condition that tells them apart may be missing. Identical values can stand only once.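 Results reflect a 48-hour exposure of cells in 96-well plates to compound at five concentrations. GI50: concentration for 50% inhibition of growth. TGI: total growth inhibition.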

Key:
Test in all cases: inhibition of tumour cell growth, NCI panel, 48 h; in the data active means GI50 below about 0.43 µM; inactive means the rest
PC-3 prostate = system: PC-3 prostate
OVCAR-3 ovarian = system: OVCAR-3 ovarian
NCI/ADR-RES ovarian = system: NCI/ADR-RES ovarian
M14 melanoma = system: M14 melanoma
HS 578T breast = system: HS 578T breast
HCC-2998 colon = system: HCC-2998 colon
SF-268 CNS = system: SF-268 CNS
NCI-H460 lung = system: NCI-H460 lung
UACC-257 melanoma = system: UACC-257 melanoma
EKVX NSCLC = system: EKVX NSCLC
SK-OV-3 ovarian = system: SK-OV-3 ovarian
A549 NSCLC = system: A549 NSCLC
SN12C renal = system: SN12C renal
SW-620 colon = system: SW-620 colon
U251 CNS = system: U251 CNS
RXF 393 renal = system: RXF 393 renal
HT29 colon = system: HT29 colon
SNB-19 CNS = system: SNB-19 CNS
SF-295 CNS = system: SF-295 CNS
HL-60(TB) leukemia = system: HL-60(TB) leukemia
LOX IMVI melanoma = system: LOX IMVI melanoma
CAKI-1 renal = system: CAKI-1 renal
MOLT-4 leukemia = system: MOLT-4 leukemia
SK-MEL-5 melanoma = system: SK-MEL-5 melanoma
SF-539 CNS = system: SF-539 CNS
T-47D breast = system: T-47D breast
IGROV1 ovarian = system: IGROV1 ovarian
RPMI-8226 leukemia = system: RPMI-8226 leukemia
HOP-62 NSCLC = system: HOP-62 NSCLC
MALME-3M melanoma = system: MALME-3M melanoma
KM12 colon = system: KM12 colon
MDA-MB-435 = system: MDA-MB-435
COLO 205 colon = system: COLO 205 colon
HCT-15 colon = system: HCT-15 colon
HCT-116 colon = system: HCT-116 colon
TK-10 renal = system: TK-10 renal
MDA-MB-231 breast = system: MDA-MB-231 breast
A498 renal = system: A498 renal
NCI-H23 lung = system: NCI-H23 lung
NCI-H226 lung = system: NCI-H226 lung
ACHN renal = system: ACHN renal
UO-31 renal = system: UO-31 renal
CCRF-CEM leukemia = system: CCRF-CEM leukemia
DU-145 prostate = system: DU-145 prostate
786-0 renal = system: 786-0 renal
SR leukemia = system: SR leukemia
SK-MEL-28 melanoma = system: SK-MEL-28 melanoma
HOP-92 NSCLC = system: HOP-92 NSCLC
K-562 leukemia = system: K-562 leukemia
OVCAR-5 ovarian = system: OVCAR-5 ovarian
UACC-62 melanoma = system: UACC-62 melanoma
MDA-N = system: MDA-N
SK-MEL-2 melanoma = system: SK-MEL-2 melanoma
NCI-H522 lung = system: NCI-H522 lung
MCF7 breast = system: MCF7 breast
SNB-75 CNS = system: SNB-75 CNS
BT-549 breast = system: BT-549 breast
OVCAR-8 ovarian = system: OVCAR-8 ovarian
OVCAR-4 ovarian = system: OVCAR-4 ovarian

COc1ccc(CCN2CCOCC2)cc1
> 100 µM: TGI (PC-3 prostate) | TGI (OVCAR-3 ovarian) | TGI (NCI/ADR-RES ovarian) | TGI (M14 melanoma) | TGI (HS 578T breast) | TGI (HCC-2998 colon) | TGI (SF-268 CNS) | TGI (NCI-H460 lung) | TGI (UACC-257 melanoma) | TGI (EKVX NSCLC) | TGI (SK-OV-3 ovarian) | TGI (A549 NSCLC) | TGI (SN12C renal) | TGI (SW-620 colon) | TGI (U251 CNS) | TGI (RXF 393 renal) | TGI (HT29 colon) | TGI (SNB-19 CNS) | TGI (SF-295 CNS) | TGI (HL-60(TB) leukemia) | TGI (LOX IMVI melanoma) | TGI (CAKI-1 renal) | TGI (MOLT-4 leukemia) | TGI (SK-MEL-5 melanoma) | TGI (SF-539 CNS) | TGI (T-47D breast) | TGI (IGROV1 ovarian) | TGI (RPMI-8226 leukemia) | TGI (HOP-62 NSCLC) | TGI (MALME-3M melanoma) | TGI (KM12 colon) | TGI (MDA-MB-435) | TGI (COLO 205 colon) | TGI (HCT-15 colon) | TGI (HCT-116 colon) | TGI (TK-10 renal) | TGI (MDA-MB-231 breast) | TGI (A498 renal) | TGI (NCI-H23 lung) | TGI (NCI-H226 lung) | TGI (ACHN renal) | TGI (UO-31 renal) | TGI (CCRF-CEM leukemia) | TGI (DU-145 prostate) | TGI (786-0 renal) | TGI (SR leukemia) | TGI (SK-MEL-28 melanoma) | TGI (HOP-92 NSCLC) | TGI (K-562 leukemia) | TGI (OVCAR-5 ovarian) | TGI (UACC-62 melanoma) | TGI (MDA-N) | TGI (SK-MEL-2 melanoma) | TGI (NCI-H522 lung) | TGI (MCF7 breast)

O=c1[nH]cc(F)c(=O)[nH]1
> 100 µM and 2250 µM and > 1170 µM: TGI (HS 578T breast)
2190 µM and > 1830 µM: TGI (K-562 leukemia)
> 100 µM and 2160 µM and > 2500 µM: TGI (DU-145 prostate)
> 100 µM and 2040 µM and > 2500 µM: TGI (HOP-92 NSCLC)
> 100 µM and 2280 µM and > 2500 µM: TGI (SF-268 CNS)
> 100 µM and 2190 µM and > 2500 µM: TGI (SK-MEL-2 melanoma)
> 100 µM and 2090 µM and > 1390 µM: TGI (BT-549 breast)
1990 µM and > 1040 µM: TGI (CCRF-CEM leukemia)
> 100 µM and > 33.4 µM and 609 µM: TGI (SR leukemia)
> 100 µM and 2250 µM and > 2500 µM: TGI (PC-3 prostate) | TGI (EKVX NSCLC)
> 100 µM and 2440 µM and > 2360 µM: TGI (SW-620 colon)
2390 µM and > 2500 µM: TGI (MDA-N)
> 100 µM and 1560 µM and 298 µM: TGI (HL-60(TB) leukemia)
> 100 µM and 1990 µM and 2430 µM: TGI (SNB-75 CNS)
> 100 µM and 2170 µM and > 2500 µM: TGI (NCI-H226 lung)
inactive: GI50 (HS 578T breast) > 100 µM and 14.3 µM | GI50 (BT-549 breast) 7.32 µM and 6.94 µM and 27.1 µM | GI50 (RXF 393 renal) 25.9 µM and 2.91 µM and 23.8 µM | GI50 (SF-295 CNS) 6.45 µM and 0.721 µM | GI50 (MOLT-4 leukemia) 6.25 µM and 0.871 µM | GI50 (T-47D breast) 7.97 µM and 9.73 µM and 17.6 µM | GI50 (IGROV1 ovarian) 6.13 µM and 2.37 µM and 20.6 µM | GI50 (A498 renal) 4.81 µM and 5.2 µM | GI50 (NCI-H226 lung) 23.9 µM and 59.6 µM and 186 µM | GI50 (CCRF-CEM leukemia) 9.86 µM and 8.53 µM | GI50 (SR leukemia) 1.26 µM and 0.514 µM | GI50 (SK-MEL-28 melanoma) 5.99 µM and 1.5 µM | GI50 (K-562 leukemia) 4.75 µM and 12 µM | GI50 (NCI-H522 lung) 11 µM and 11.5 µM and 82.9 µM

COc1cc(/C=N/O)nc(-c2ccccn2)c1
12.9 µM: TGI (NCI-H460 lung)
5.93 µM: TGI (NCI-H226 lung)
22.2 µM: TGI (SR leukemia)
4.98 µM: TGI (M14 melanoma)
12.6 µM: TGI (ACHN renal)
1.31 µM: TGI (SK-MEL-5 melanoma)
25.1 µM: TGI (MOLT-4 leukemia)
10.8 µM: TGI (LOX IMVI melanoma)
68.2 µM: TGI (SF-268 CNS)
9.43 µM: TGI (UACC-257 melanoma)
6.82 µM: TGI (UO-31 renal)
10.4 µM: TGI (SF-539 CNS)
> 100 µM: TGI (PC-3 prostate) | TGI (OVCAR-3 ovarian) | TGI (HS 578T breast) | TGI (HCC-2998 colon) | TGI (EKVX NSCLC) | TGI (SK-OV-3 ovarian) | TGI (A549 NSCLC) | TGI (SW-620 colon) | TGI (BT-549 breast) | TGI (U251 CNS) | TGI (HT29 colon) | TGI (SNB-19 CNS) | TGI (T-47D breast) | TGI (RPMI-8226 leukemia) | TGI (KM12 colon) | TGI (MDA-MB-435) | TGI (COLO 205 colon) | TGI (HCT-15 colon) | TGI (HCT-116 colon) | TGI (TK-10 renal) | TGI (MDA-MB-231 breast) | TGI (NCI-H23 lung) | TGI (SK-MEL-28 melanoma) | TGI (HOP-92 NSCLC) | TGI (K-562 leukemia) | TGI (OVCAR-5 ovarian) | TGI (OVCAR-4 ovarian) | TGI (SK-MEL-2 melanoma) | TGI (NCI-H522 lung) | TGI (MCF7 breast)
> 35.5 µM: TGI (SF-295 CNS)
> 33.2 µM: TGI (CCRF-CEM leukemia)
19.4 µM: TGI (A498 renal)
> 44.7 µM: TGI (SN12C renal)
> 69.7 µM: TGI (HOP-62 NSCLC)
active: GI50 (OVCAR-3 ovarian) 0.324 µM | GI50 (NCI/ADR-RES ovarian) 0.294 µM | GI50 (HCC-2998 colon) 0.341 µM | GI50 (SF-268 CNS) 0.357 µM | GI50 (NCI-H460 lung) 0.304 µM | GI50 (EKVX NSCLC) 0.342 µM | GI50 (OVCAR-8 ovarian) 0.348 µM | GI50 (SW-620 colon) 0.415 µM | GI50 (U251 CNS) 0.374 µM | GI50 (HL-60(TB) leukemia) 0.271 µM | GI50 (LOX IMVI melanoma) 0.271 µM | GI50 (MOLT-4 leukemia) 0.281 µM | GI50 (SF-539 CNS) 0.386 µM | GI50 (IGROV1 ovarian) 0.349 µM | GI50 (HOP-62 NSCLC) 0.358 µM | GI50 (KM12 colon) 0.385 µM | GI50 (COLO 205 colon) 0.305 µM | GI50 (HCT-15 colon) 0.197 µM | GI50 (HCT-116 colon) 0.351 µM | GI50 (TK-10 renal) 0.325 µM | GI50 (NCI-H226 lung) 0.325 µM | GI50 (ACHN renal) 0.241 µM | GI50 (UO-31 renal) 0.183 µM | GI50 (CCRF-CEM leukemia) 0.207 µM | GI50 (DU-145 prostate) 0.4 µM | GI50 (SR leukemia) 0.284 µM | GI50 (UACC-62 melanoma) 0.325 µM | GI50 (OVCAR-4 ovarian) 0.255 µM | GI50 (MCF7 breast) 0.347 µM
27.5 µM: TGI (786-0 renal)
> 75.3 µM: TGI (DU-145 prostate)
8.97 µM: TGI (CAKI-1 renal)
12.2 µM: TGI (MALME-3M melanoma)
22.8 µM: TGI (OVCAR-8 ovarian)
10.9 µM: TGI (NCI/ADR-RES ovarian)
2.81 µM: TGI (HL-60(TB) leukemia)
24.1 µM: TGI (IGROV1 ovarian)
14.8 µM: TGI (RXF 393 renal)
2.7 µM: TGI (UACC-62 melanoma)
inactive: GI50 (PC-3 prostate) 0.437 µM | GI50 (SNB-75 CNS) 0.5 µM | GI50 (HS 578T breast) 3.76 µM | GI50 (UACC-257 melanoma) 0.679 µM | GI50 (SN12C renal) 0.434 µM | GI50 (BT-549 breast) 0.803 µM | GI50 (RXF 393 renal) 0.723 µM | GI50 (HT29 colon) 0.454 µM | GI50 (SNB-19 CNS) 0.558 µM | GI50 (T-47D breast) 0.465 µM | GI50 (MALME-3M melanoma) 0.431 µM | GI50 (MDA-MB-435) 0.492 µM | GI50 (MDA-MB-231 breast) 0.541 µM | GI50 (A498 renal) 0.717 µM | GI50 (786-0 renal) 0.465 µM | GI50 (SK-MEL-28 melanoma) 0.476 µM | GI50 (HOP-92 NSCLC) 0.551 µM | GI50 (OVCAR-5 ovarian) 0.637 µM | GI50 (SK-MEL-2 melanoma) 1.86 µM | GI50 (NCI-H522 lung) 0.565 µM
